What all share (experiment): growth of human tumour cells (NCI), 48 h
Assay [1] has as its system U251 CNS.
Assay [2] deals with MDA-MB-231 breast.
The subject of assay [3] is NCI/ADR-RES ovarian.
For assay [4], the system named is HCC-2998 colon.
The subject of assay [5] is A549 NSCLC.
The test system of assay [6] is K-562 leukemia.
The test system of assay [7] is SN12C renal.
Assay [8] deals with T-47D breast.
In assay [9] the test system is HOP-92 NSCLC.
In assay [10] the test system is COLO 205 colon.

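Cultured in 96-well plates, cells were exposed to test compound for 48 hours across five concentrations. At the GI50, growth is halved. At the TGI there is no net growth.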

`CC[CH2][Sn]([Cl])([Cl])[CH2]CC.Oc1ccccc1C=NCCN=Cc1ccccc1O`: the GI50 in [1] is 3.11 µM; in [2] it was 3.96 µM; in assay [3] it was 16 µM; in assay [4] it was 11.1 µM; in assay [5], 19.2 µM; in assay [6] it was 2.53 µM. Further, the GI50 in assay [7] was 11.3 µM; in [8] it was 1.09 µM; in assay [9] it was 2.09 µM; in assay [10], 2.97 µM. For the same molecule, the TGI is 12.5 µM in assay [1]; 15.8 µM in assay [2]; 37.8 µM in assay [3]; 23.8 µM in assay [4]; 41 µM in [5]; more than 100 µM in assay [6]. Moreover, the TGI was found to be 23.8 µM in [7], 2.6 µM in assay [8], 8.8 µM in assay [9] and 10.1 µM in assay [10].

Consider `COC(=O)[C@H](Cc1c[nH]c2ccccc12)NC(=O)[C@@H](OC)[C@@H]1Cc2cc3cc(OC4CC(OC5CC(O)C(O)C(C)O5)C(O)C(C)O4)c(C)c(O)c3c(O)c2C(=O)[C@H]1OC1CC(OC2CC(OC3CC(C)(O)C(O)C(C)O3)C(O)C(C)O2)C(O)C(C)O1` (stereo partly drawn), for which the GI50 is 0.00642 µM in assay [1]; 0.00975 µM in [2]; more than 11.7 µM in assay [3]; 0.00659 µM in assay [4]; 0.00873 µM in assay [5]; 0.0118 µM in assay [6]. Moreover, the GI50 in [7] was 0.00624 µM; in assay [8], 0.0075 µM; in [9], 0.0039 µM; in assay [10] it was 0.00366 µM. Further, the TGI in [1] was more than 16.5 µM; in assay [2], 0.603 µM; in [3], more than 16.5 µM; in assay [4] it was 0.0382 µM; in assay [5], more than 16.5 µM; in [6], more than 16.5 µM. The TGI in [7] was 7.42 µM; in assay [8], more than 9.76 µM; in assay [9] it was 0.0333 µM; in [10], 0.00882 µM.

Consider `COc1cc(NS(=O)(=O)c2ccc(-c3cnc(C4CC4)o3)cc2)ccc1F`, for which the GI50 was 0.572 µM in assay [1]; 1.36 µM in [2]; 0.339 µM in assay [3]; 1.09 µM in assay [4]; 0.826 µM in assay [5]; 0.082 µM in assay [6]. The GI50 in [7] was 0.546 µM; in assay [8], 0.436 µM; in assay [9], 0.579 µM; in [10], 0.506 µM. Also, the TGI in [1] is 18.1 µM; in assay [2], 19.5 µM; in [3], 10.2 µM; in assay [4] it was 12.7 µM; in [5] it was more than 45.8 µM; in assay [6], more than 100 µM. The TGI in [7] worked out at 18.1 µM; in [8], 38.9 µM; in assay [9], 13.1 µM; in [10] it was 9.57 µM.

Turning to `COc1cc2c3c(n(C)c(=O)c2cc1OC)-c1cc2c(cc1/C3=C\CNCCCN)OCO2`, the GI50 is 0.0717 µM in assay [1]; 0.333 µM in assay [2]; 5.26 µM in assay [3]; 0.501 µM in assay [4]; 1.43 µM in [5]; 0.168 µM in assay [6]. The GI50 in assay [7] is 0.115 µM; in [9] it was 0.174 µM; in assay [10], 0.232 µM. Moreover, the TGI in assay [1] is 1.58 µM; in assay [2] it was 2.01 µM; in [3], more than 88.5 µM; in assay [4], 1.99 µM; in [5], more than 25.1 µM; in assay [7], 1.07 µM. The TGI in assay [8] was found to be 3.02 µM; in assay [9] it was 1.27 µM; in [10] it was 8.71 µM.

Take `CCC(=O)c1c(C(F)(F)F)n([O-])c2ccc(C)cc2[n+]1=O`: the GI50 in assay [1] was 10.7 µM; in assay [2], 12.1 µM; in assay [3] it was 6.14 µM; in assay [4], 5.92 µM; in assay [5], 11.3 µM; in [6], 3.4 µM. Further, the GI50 is 7.39 µM in assay [7], 6.51 µM in assay [8], 8.69 µM in assay [9] and 5.24 µM in [10]. Further, the TGI in assay [1] is more than 50 µM; in assay [2] it was 37.9 µM; in assay [3], 36.5 µM; in assay [4] it was 21.9 µM; in assay [5], more than 50 µM; in [6] it was more than 50 µM. In addition, the TGI in [7] is 19.8 µM; in [8], 26.8 µM; in [9] it was more than 50 µM; in [10] it was 19.6 µM.

Take `COc1ccccc1Cn1cc2c(c1-c1ccccc1)CCc1cnoc1-2`: the GI50 in [1] is 4.06 µM; in assay [2], 3.96 µM; in assay [3], 0.848 µM; in assay [4], 5.48 µM; in assay [5], 4.31 µM; in [6], 0.539 µM. Also, the GI50 in [7] was 6.61 µM; in assay [8], 4.49 µM; in [9], 1.36 µM; in assay [10], 2.56 µM. In addition, the TGI in assay [1] was more than 100 µM; in [2] it was more than 100 µM; in assay [3] it was 4.47 µM; in assay [4], more than 100 µM; in assay [5], more than 100 µM; in [6], more than 100 µM. The TGI in [7] is more than 100 µM; in [8], more than 100 µM; in assay [9], 9.42 µM; in [10], 7.62 µM.
